molecular target: T1, Histamine H3 receptor (Homo sapiens, UniProt Q9Y5N1); assay: Displacement of [125I]Iodoproxyfan from human histamine H3 receptor expressed in HEK293 cells; type: cell-based
T1 sequence (Q9Y5N1 whole entry): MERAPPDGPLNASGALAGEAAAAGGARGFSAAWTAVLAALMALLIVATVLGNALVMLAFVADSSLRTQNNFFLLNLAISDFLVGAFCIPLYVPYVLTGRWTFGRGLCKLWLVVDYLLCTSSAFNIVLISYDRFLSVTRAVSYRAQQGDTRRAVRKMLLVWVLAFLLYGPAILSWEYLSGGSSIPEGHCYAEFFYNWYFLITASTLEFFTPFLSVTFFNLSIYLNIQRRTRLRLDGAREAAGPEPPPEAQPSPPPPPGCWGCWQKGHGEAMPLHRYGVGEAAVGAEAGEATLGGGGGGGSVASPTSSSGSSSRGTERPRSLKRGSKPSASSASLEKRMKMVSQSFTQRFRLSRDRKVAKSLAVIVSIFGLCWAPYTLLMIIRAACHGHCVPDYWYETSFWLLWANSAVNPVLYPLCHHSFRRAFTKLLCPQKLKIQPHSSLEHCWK

Structure (SMILES) | Ki
CC(=O)c1sc(SCCCN2CCCCC2)nc1C | > 1 µM
c1cncc(-c2noc(CCCCN3CCCCC3)n2)c1 | 0.11 µM
c1cc(-c2nnc(SCCCN3CCCCC3)o2)ccn1 | 0.187 µM

Results, then the compound that gave them:

Ki | Structure (SMILES)
0.063 µM | c1ccc(-c2cnc(CCCCN3CCCCC3)o2)cc1
0.032 µM | c1ccc(-c2nc(SCCCN3CCCCC3)oc2-c2ccccc2)cc1
0.02 µM | C1CCN(CCCOc2nc3c(s2)CN(CCCN2CCCCC2)CC3)CC1
0.0074 µM | c1ccc(-c2nc(SCCCN3CCCCC3)sc2-c2ccccc2)cc1

molecular target: T1, Histamine H3 receptor; assay: Displacement of [3H]Methylhistamine from human histamine H3 receptor expressed in HEK293 cells; type: cell-based

Ki | Structure (SMILES)
0.018 µM | c1cc(-c2nc(SCCCN3CCCCC3)nn2CCCN2CCCCC2)ccn1

From ChEMBL document CHEMBL1255507, “Azole derivatives as histamine H3 receptor antagonists, part 2: C-C and C-S coupled heterocycles” (Bioorg Med Chem Lett, 2010)
